Test results taken from patent publication US20210252159A1, “CONJUGATES OF CARTILAGE-HOMING PEPTIDES” (priority 2018, published 2021).
Read-outs that look alike come from different tables or passages of the source. Positions of bridges follow the written chain, without caps; N, C: chain ends. Residues, ends and D or L forms follow the SMILES beside them. *: point of attachment. X6 = C[C@@H]1C[C@H]2[C@@H]3CCC4=CC(=O)C=C[C@]4(C)[C@@]3(F)[C@@H](O)C[C@]2(C)[C@@]1(O)C(=O)COC(=O)CC1(CC(=O)*)CCCC1; X5 = C[C@@H]1C[C@H]2[C@@H]3CCC4=CC(=O)C=C[C@]4(C)[C@@]3(F)[C@@H](O)C[C@]2(C)[C@@]1(O)C(=O)COC(=O)CCCCC(=O)*

Columns and labels:
CIA rats = type: in vivo
Method: Ankle diameter measurements were recorded daily starting on induction day 9 and continuing for the duration of the study. […] Each treatment was administered on the day of enrollment (study day 0) and repeated daily for 7 days (study day 6). Rats were euthanized 3 h after the final dose and blood and organs were collected for testing.

[1] = IL-1β challenge rat model, dose-ranging study: CBC, organ weights, tolerability; type: in vivo, rats; conditions: 7 hours post administration
Method: IL-6 was measured in knee lavage fluid using a Luminex assay and levels were normalized to total protein in the lavage fluid (FIG. 24). Assessment of the PD inflammatory marker IL-6 in the knee joints of rats challenged with IL-1β was performed. Terminal synovial fluid was collected from all animals and analyzed by Luminex 200 for IL-6 cytokine concentrations using EMD Milliplex MAP Rat Cytokine/Chemokine Magnetic Panel ([…]-65K). […] Doses are listed as nmol/kg The masses of these doses are given below in TABLE 16. Two hours and forty-five minutes (i.e., 2.75 hrs) after administration of the test agents, animals were gently heated and blood was drawn from the tail vein for CBC analysis. Animals were then anesthetized with inhaled isoflurane and injected with 30 ng of IL-1β into the right knee (except for no IL-1β group). Four hours after administration of IL-1β (seven hours after administration of test agent) the animals were euthanized. Blood was drawn for a second CBC analysis and the right knee was lavaged for detection of IL-6 in the lavage fluid using a Luminex assay. Thymus and spleen were harvested and their organ weights determined.
In the same animals for which IL-6 secretion was measured, CBC data (e.g., lymphocyte counts) were also analyzed (FIG. 25) at an early time-point, 2.75 hrs post administration of the test article (FIG. 25A), and at euthanasia 7 hrs post administration (FIG. 25B). All treatments were administered as described above for the measurement of IL-6 secretion.
All treatments and test articles were administered as described above, except for an additional treatment group that received 510 nmol/kg of the peptide-drug conjugate peptide(SEQ ID NO: 105)-DMA-dCIC.

[2] = Hydrolysis assay of peptide-drug conjugates in rat plasma (free drug by LC/MS); type: in vitro ADME; conditions: 37° C.
Method: Peptide-drug conjugate peptide(SEQ ID NO: 105)-DMA-dCIC was incubated in rat plasma at 37° C. Samples were removed at regular intervals, processed by solvent extraction, and analyzed by LC/MS to quantitate free dCIC. 11 time-points were measured between 5 min and 56 hours with 3 replicates per time point. The assay was repeated two times.
In order to determine hydrolysis rates, conjugates can be diluted in PBS, rat plasma, or human plasma and incubated at 37 degrees. Samples can be taken at designated time-points (e.g., 1, 2, 3, 5, 10, 15, 20, 25, 30, 45, 60, or 90 minutes and/or hours after administration). Internal standards such as triamcinolone acetonide (TAA) can be added as an internal standard, and then active agent/TAA can be extracted using acetonitrile, for example. The samples can be dried down, reconstituted, and analyzed by LC/MS. Data can be normalized using Dex AUC/TAA AUC. Percent hydrolysis can be calculated using the average ratio for active agent AUC/TAA AUC at a time point of maximal drug release. A general method can include using a lyophilized, purified peptide-drug conjugates reconstituted in DMSO following production to generate stock solution at 20 mg/mL. Each conjugate stock can be brought to 0.25 mg/mL in each hydrolysis condition (1×DPBS, human plasma and rat plasma) in triplicate and rocked at 37° C. To quantitate free active agent, 100 μl of the hydrolyzed conjugate solution can be transferred into 1 mL acetonitrile at 4° C. at which time all plasma proteins and intact conjugates can precipitate. This can be performed repeatedly to generate a series of time points (0 hr, 0.5 hr, 1 hr, 2 hr, 4 hr, 6 hr, 8 hr, 24 hr, 32 hr). The acetonitrile solution can be spun at 17,000 g for 5 minutes, and the supernatant removed and added to a 96 well block. The pellet can then be resuspended in 500 μl acetonitrile and re-pelleted as before. The supernatant can be removed and added to the same well in the block. Samples can be prepared for analysis by drying under a nitrogen stream followed by reconstitution in 110 μl 45:55 ACN:Citrate 10 mM pH 5.5. To ensure optimal recovery the block can be shaken via plate shaker at 7,000 rpm for 5 minutes during the reconstitution step. Prior to LC/MS the samples can be transferred to a 96 well plate and centrifuged at 6,500 g for 15 minutes. Analysis can be performed on an Agilent 1260 Infinity series HPLC with inline 6120 single quad MS using acetonitrile, water (+0.1% TFA) gradient (shown below) on an InfinityLab Poroshell SB-C18 column. Quantification of free active agent (or drug) can be achieved through integration of active agent peaks of the TIC.
Lyophilized, purified peptide-drug conjugates were reconstituted in DMSO following production to generate stock solution at 20 mg/mL. Each conjugate stock was brought to 0.25 mg/mL in each hydrolysis condition (1×DPBS, human plasma and rat plasma) in triplicate and rocked at 37° C.
To quantitate free dexamethasone (Dex), 100 μl of the hydrolyzed conjugate solution was transferred into 1 mL acetonitrile at 4° C. at which time all plasma proteins and intact conjugates precipitated. This was performed repeatedly to generate a series of time points (0 hr, 0.5 hr, 1 hr, 2 hr, 4 hr, 6 hr, 8 hr, 24 hr, 32 hr). The corticosteroid triamcinolone acetonide (25 μl, 0.1 mg/mL in 45:55 ACN:Citrate 10 mM pH 5.5) was supplemented into the acetonitrile solution as an internal standard. The acetonitrile solution was spun at 17,000 g for 5 minutes, and the supernatant removed and added to a 96 well block. The pellet was resuspended in 500 μl acetonitrile and re-pelleted as before. The supernatant was removed and added to the same well in the block.
Samples were prepared for analysis by drying under a nitrogen stream followed by reconstitution in 110 μl 45:55 ACN:Citrate 10 mM pH 5.5. To ensure optimal recovery the block was shaken via plate shaker at 7,000 rpm for 5 minutes during the reconstitution step. […]

[3] = 0.05 mg/kg daily for 7 days, study day 6
[4] = in rat plasma, free Dex, read-out: Hydrolysis half-life (converted)

| SMILES | ankle diameter on study day 6 versus day 0, compared to vehicle (CIA rats; 0.05 mg/kg) | plasma lymphocyte counts as compared to vehicle (CIA rats; [3]) | spleen weight as compared to vehicle (CIA rats; [3]) | thymus weight as compared to vehicle (CIA rats; [3]) | ankle inflammation (CIA rats; highest dose of 0.05 mg/kg daily for 7 days) | ankle inflammation (CIA rats; lower doses (0.001, 0.005, 0.01 mg/kg) daily for 7 days) | spleen and thymus weights at euthanasia [1] | half-life at 0.25 mg/mL ([2]; Rat Plasma, release of free Dex, time points to 32 hr, read-out: Half-life (hours) as measured in the hydrolysis experiments (converted)) | half-life at 0.25 mg/mL [2, 4] |
| --- | --- | --- | --- | --- | --- | --- | --- | --- | --- |
| C[C@@H]1C[C@H]2[C@@H]3CCC4=CC(=O)C=C[C@]4(C)[C@@]3(F)[C@@H](O)C[C@]2(C)[C@@]1(O)C(=O)COP(=O)(O)O [DexSP, Dexamethasone sodium phosphate, reference compound] | statistically different than vehicle | significantly reduced | significantly reduced | significantly reduced | effective at reducing ankle inflammation | indistinguishable from vehicle | reduction in the weight of both organs | – | – |
| CC[C@H](C)[C@@H]1NC(=O)[C@@H]2CSSC[C@H](NC(=O)[C@H](CCCNC(=N)N)NC(=O)[C@@H](NC(=O)[C@H](CC(N)=O)NC(=O)[C@@H](NC(=O)[C@@H]3CCCN3C(=O)[C@@H](NC(=O)CNC(=O)[C@H](CO)NC(=O)CNC(=O)CCCCC(=O)OCC(=O)[C@@]3(O)[C@H](C)C[C@H]4[C@@H]5CCC6=CC(=O)C=C[C@]6(C)[C@@]5(F)[C@@H](O)C[C@@]43C)C(C)C)[C@@H](C)CC)C(C)C)C(=O)N[C@@H](CCCNC(=N)N)C(=O)NCC(=O)N[C@@H](CO)C(=O)N[C@@H](CCCNC(=N)N)C(=O)N[C@@H](CC(=O)O)C(=O)N[C@H]3CSSC[C@H](NC(=O)[C@H](CCCNC(=N)N)NC(=O)[C@H](CO)NC(=O)[C@H](CC(N)=O)NC1=O)C(=O)N[C@@H](Cc1c[nH]cn1)C(=O)N[C@H](C(=O)N[C@H](C(=O)N1CCC[C@H]1C(=O)O)[C@@H](C)O)CSSC[C@H](NC(=O)[C@@H]1CCCN1C(=O)[C@H](CC(=O)O)NC(=O)[C@H](CC(C)C)NC3=O)C(=O)N[C@@H](CCCNC(=N)N)C(=O)N[C@@H](CCCNC(=N)N)C(=O)N[C@@H](C)C(=O)NCC(=O)N[C@@H](CCSC)C(=O)N[C@@H](CCCNC(=N)N)C(=O)N[C@@H](Cc1ccccc1)C(=O)NCC(=O)N[C@@H](CCCNC(=N)N)C(=O)N2 [Compound 24, Peptide(SEQ ID NO: 105)-adipic acid-Dex] (X5-GSGVPINVRCRGSRDCLDPCRRAGMRFGRCINSRCHCTP-OH; disulfide 10-30, 16-35, 20-37 (inferred); C-terminus assumed) | – | – | – | – | – | – | – | 2.8 h | 2.6 h |
| CC[C@H](C)[C@@H]1NC(=O)[C@@H]2CSSC[C@H](NC(=O)[C@H](CCCNC(=N)N)NC(=O)[C@@H](NC(=O)[C@H](CC(N)=O)NC(=O)[C@@H](NC(=O)[C@@H]3CCCN3C(=O)[C@@H](NC(=O)CNC(=O)[C@H](CO)NC(=O)CNC(=O)CC3(CC(=O)OCC(=O)[C@@]4(O)[C@H](C)C[C@H]5[C@@H]6CCC7=CC(=O)C=C[C@]7(C)[C@@]6(F)[C@@H](O)C[C@@]54C)CCCC3)C(C)C)[C@@H](C)CC)C(C)C)C(=O)N[C@@H](CCCNC(=N)N)C(=O)NCC(=O)N[C@@H](CO)C(=O)N[C@@H](CCCNC(=N)N)C(=O)N[C@@H](CC(=O)O)C(=O)N[C@H]3CSSC[C@H](NC(=O)[C@H](CCCNC(=N)N)NC(=O)[C@H](CO)NC(=O)[C@H](CC(N)=O)NC1=O)C(=O)N[C@@H](Cc1c[nH]cn1)C(=O)N[C@H](C(=O)N[C@H](C(=O)N1CCC[C@H]1C(=O)O)[C@@H](C)O)CSSC[C@H](NC(=O)[C@@H]1CCCN1C(=O)[C@H](CC(=O)O)NC(=O)[C@H](CC(C)C)NC3=O)C(=O)N[C@@H](CCCNC(=N)N)C(=O)N[C@@H](CCCNC(=N)N)C(=O)N[C@@H](C)C(=O)NCC(=O)N[C@@H](CCSC)C(=O)N[C@@H](CCCNC(=N)N)C(=O)N[C@@H](Cc1ccccc1)C(=O)NCC(=O)N[C@@H](CCCNC(=N)N)C(=O)N2 [Compound 26, Peptide(SEQ ID NO: 105)-3,3,-tetramethylene-glutaric acid-Dex] (X6-GSGVPINVRCRGSRDCLDPCRRAGMRFGRCINSRCHCTP-OH; disulfide 10-30, 16-35, 20-37 (inferred); C-terminus assumed) | – | – | – | – | – | – | – | – | 1.1 h |
